Holding throughout (experiment): NCI tumour cell line growth inhibition, 48 h
The test system of assay [1] is NCI-H460 lung.
In assay [2] the test system is T-47D breast.
For assay [3], the system named is KM12 colon.
Assay [4] concerns SK-MEL-2 melanoma.
The subject of assay [5] is PC-3 prostate.
Assay [6] has as its system NCI-H522 lung.
Assay [7] concerns MALME-3M melanoma.
The subject of assay [8] is OVCAR-3 ovarian.
The test system of assay [9] is SW-620 colon.
The subject of assay [10] is MDA-MB-435.

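Compound exposure: 48 hours, 5 concentrations, 96-well plates. Here, GI50 denotes the concentration required for 50% inhibition of growth. TGI marks complete inhibition of growth.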 A value given as a limit tells only on which side of the number the result lay.

As to `COC(=O)Nc1nc2ccc(C(=O)c3cccc(I)c3)cc2[nH]1`, the GI50 in [1] is 0.0407 µM; in assay [2], 16.5 µM; in assay [3], 0.0418 µM; in [4], 1.26 µM; in [5], 0.0457 µM; in assay [6], 0.0778 µM. Also, the GI50 in assay [7] was 0.274 µM; in [8], 0.0332 µM; in assay [9] it was 0.0394 µM; in [10] it was 0.0211 µM. The TGI in assay [1] was 4.33 µM; in assay [2], more than 100 µM; in assay [3], 5.7 µM; in [4], more than 72.3 µM; in assay [5], 6.18 µM; in assay [6] it was 9.59 µM. In addition, the TGI worked out at 24.1 µM in assay [7], 0.207 µM in assay [8], 14.9 µM in assay [9] and 0.051 µM in [10].

For `COc1cc(OC)c(/C=C/C(=O)c2c(OC)cc(OC)cc2OC)c(OC)c1`, the GI50 was 0.976 µM in assay [1]; 2.01 µM in [2]; 0.469 µM in assay [3]; 0.984 µM in assay [4]; 0.992 µM in assay [5]; 0.515 µM in assay [6]. For the same compound, the GI50 was 1.07 µM in assay [7], 0.233 µM in assay [8], 0.417 µM in assay [9] and 0.235 µM in [10]. The TGI in [1] was 7.74 µM; in [2] it was more than 100 µM; in assay [3] it was 2.57 µM; in assay [4], more than 21.8 µM; in assay [5], more than 100 µM; in assay [6], 4.18 µM. Besides, the TGI is more than 100 µM in [7], 0.8 µM in [8], 2.91 µM in assay [9] and 0.694 µM in assay [10].

Regarding `C=CCc1c(O)c(C(=O)/C=C/c2ccc(Cl)cc2)c(OC)c2ccoc12`, the GI50 in assay [1] was 3.2 µM; in [2], 3.29 µM; in [3], 3.72 µM; in assay [4] it was 3.97 µM; in [5] it was 3.81 µM; in [6], 1.88 µM. The GI50 in [7] was 2.74 µM; in assay [8], 1.97 µM; in [9], 2.56 µM; in assay [10], 2.06 µM. Also, the TGI came out at 12.1 µM in [1]; 19 µM in assay [2]; 13 µM in [3]; 14.7 µM in assay [4]; 15.6 µM in [5]; 5.71 µM in assay [6]. The TGI was determined as 8.51 µM in assay [7], 4.41 µM in [8], 6.86 µM in assay [9] and 4.53 µM in assay [10].

For `CCN1CCN(C(=O)[C@]23CC[C@@H](C)[C@H](C)[C@@H]2C2=CC[C@@H]4[C@@]5(C)CCC(=O)C(C)(C)[C@@H]5CC[C@@]4(C)[C@]2(C)CC3)CC1`, the GI50 in assay [1] is 0.93 µM; in assay [2], 1.33 µM; in assay [3], 1.03 µM; in assay [4], 1.29 µM; in assay [5], 0.875 µM; in assay [6], 0.831 µM. Also, the GI50 in assay [7] was 0.807 µM; in assay [8], 1.1 µM; in assay [9], 0.902 µM; in assay [10], 1.05 µM. The TGI came to 1.75 µM in [1]; 3.89 µM in assay [2]; 2.22 µM in [3]; 3.33 µM in assay [4]; 3.17 µM in assay [5]; 1.75 µM in assay [6]. In addition, the TGI in assay [7] was 1.51 µM; in assay [8] it was 2.44 µM; in assay [9], 1.76 µM; in [10], 2.3 µM.

As to `CC(C)(C)NCC(O)c1ccccc1Cl` (stereo not given), the GI50 in assay [1], in [2], in [3], in assay [4], in assay [5] and in [6] was more than 100 µM throughout. Also, the GI50 in [7], in assay [8], in [9] and in [10] was more than 100 µM throughout. Also, the TGI in assay [1], in assay [2], in [3], in assay [4], in [5] and in [6] was more than 100 µM each time. The TGI in [7], in [8], in [9] and in [10] was more than 100 µM in each case.

For `CCOC(=O)N1CCC(N=C2CSc3nnc(-c4cc(C(F)(F)F)cc(C(F)(F)F)c4)n3N2)CC1`, the GI50 was 2.11 µM in [1]; 2.6 µM in assay [2]; 2.04 µM in assay [3]; 2 µM in [4]; 2.2 µM in assay [5]; 2.27 µM in [6]. The GI50 was 1.68 µM in assay [7], 2.01 µM in assay [8], 2.09 µM in assay [9] and 1.58 µM in assay [10]. Besides, the TGI in assay [1] is 4.1 µM; in assay [2], 6.82 µM; in [3], 3.95 µM; in assay [4], 3.6 µM; in assay [5], 6.27 µM; in [6], 4.61 µM. Moreover, the TGI in assay [7] turned out to be 3.31 µM; in assay [8], 3.59 µM; in [9], 4.27 µM; in [10], 3 µM.

`CC(C)[C@@H](C(=O)O[C@@H]1/C=C/C(=O)O[C@@H](C)CCC/C=C/[C@@H]2C[C@H](O)C[C@H]21)N(C)C`: the GI50 is 24.7 µM in assay [1]; 30 µM in assay [2]; 2.91 µM in assay [3]; 23.1 µM in assay [4]; 6.77 µM in [5]; 26.6 µM in assay [6]. Besides, the GI50 was 3.89 µM in assay [7], 6.34 µM in assay [8], 7.03 µM in [9] and 7.43 µM in assay [10]. For the same compound, the TGI in assay [1] was more than 76.3 µM; in [2] it was more than 100 µM; in assay [3], 10.2 µM; in assay [4], more than 68.3 µM; in [5], 61.6 µM; in assay [6], more than 75 µM. Further, the TGI in [7] came to 22 µM; in assay [8] it was 26.7 µM; in assay [9] it was 20.7 µM; in assay [10] it was 41.4 µM.

With `Cc1cc(N(CCC#N)S(=O)(=O)c2ccccc2)ccc1C=Nc1ccc(C(=O)O)cc1`, the TGI in assay [1] was 29.9 µM; in [2] it was more than 100 µM; in assay [3], 42.6 µM; in [4], 22.3 µM; in [5], more than 100 µM; in assay [6], 9.13 µM. For the same compound, the TGI in assay [7] is 12 µM; in assay [8], 21.5 µM; in [9], 15 µM; in [10], more than 100 µM.

`CC(NNC(=S)N1CCN(c2ccccn2)CC1)c1nccc2ccccc12` (stereo not given): the TGI in assay [1] was found to be 11.3 µM; in assay [2], 16.9 µM; in assay [3], 19 µM; in assay [4], 18.3 µM; in assay [5], 14.9 µM; in assay [6], 14 µM. For the same compound, the TGI in [7] stood at 15.5 µM; in assay [8], 13.2 µM; in [9], 20.1 µM; in assay [10] it was 17 µM.

For `CC(=O)OC1CC2(C)C(=CC1C1SCCS1)CCC1C2CCC2(C)C(OC(C)=O)CCC12` (stereo not given), the TGI in [1], in assay [2], in assay [3], in assay [4], in assay [5] and in assay [6] was more than 100 µM in each case. For the same compound, the TGI in [7], in assay [8], in assay [9] and in assay [10] was more than 100 µM throughout.

As to `O=[N+]([O-])c1c(O)c2nonc2c2nn(-c3ccccc3)nc12`, the TGI in assay [1], in assay [2], in assay [3], in assay [4], in [5] and in assay [6] was more than 100 µM in each case. In addition, the TGI in assay [7], in [8], in assay [9] and in assay [10] was more than 100 µM throughout.

In the case of `CC(=O)C1=C(C)N(Cc2ccccc2)C2(O)C=CC(=O)C3=C(O)c4ccccc4C(=O)C312` (stereo not given), the GI50 is 7.24 µM in [1]; 2.71 µM in assay [2]; 9.05 µM in assay [3]; 20.8 µM in assay [4]; 10.3 µM in assay [5]; 7.3 µM in assay [6]. The GI50 in [7] is 1.44 µM; in assay [8] it was 1.42 µM; in [9], 2.24 µM; in [10], 2.26 µM. Further, the TGI in [1] is 41.3 µM; in assay [2] it was 7.97 µM; in assay [3] it was 26 µM; in assay [4], more than 100 µM; in [5] it was 31.2 µM; in assay [6], more than 100 µM. In addition, the TGI amounted to 2.97 µM in assay [7], 3.14 µM in assay [8], 5.22 µM in [9] and 4.14 µM in [10].

As to `CN1C(=O)N(C)C2C1NC(=S)N2/N=C/C=C/c1ccccc1[N+](=O)[O-]` (stereo not given), the GI50 is 0.701 µM in assay [1]; more than 100 µM in [2]; 0.774 µM in assay [3]; 0.587 µM in assay [4]; 0.967 µM in [5]; 0.318 µM in assay [6]. For the same compound, the GI50 was more than 100 µM in assay [7], 0.344 µM in assay [8], 0.596 µM in assay [9] and 0.271 µM in assay [10]. The TGI in assay [1] is more than 100 µM; in assay [2], more than 100 µM; in assay [3] it was more than 100 µM; in assay [4], more than 100 µM; in [5] it was more than 100 µM; in assay [6], 9.65 µM. Besides, the TGI is more than 100 µM in [7], more than 100 µM in [8], more than 100 µM in assay [9] and 0.997 µM in [10].
